Experimental data taken from patent publication US20220062299A1, “USE OF GLUCOCORTICOID STEROIDS IN PREVENTING AND TREATING CONDITIONS OF MUSCLE WASTING, AGING AND METABOLIC DISORDER” (NORTHWESTERN UNIVERSITY, priority 2018, published 2022).

What was measured:
[1] = tested on: GRE-KRE genomic sites (Mef2C, Bckdha, Pck1, Nmnat3); assay: Luciferase reporter experiments in electroporated mdx myofibers; format: in vivo, mouse; settings: prednisone pulse 1 mg/kg combined with Klf15 overexpression
Source text: Luciferase experiments in live myofibers. Luciferase plasmids containing regulatory fragments were obtained cloning genomic sequences in the pGL4.23 backbone (#E8411; Promega, Madison, Wis.) using the KpnI-XhoI sites upstream of the minimal promoter site. Fragments were cloned conserving the genomic orientation with regards to transcriptional orientation, adding KpnI and XhoI tails to the appropriate extremities via Phusion PCR. Wildtype fragments […] were cloned from wildtype C57Bl/6J genomic DNA, while mutated fragments (Δ sites) were amplified from ad-hoc synthetized DNA oligonucleotides, using genomic sequences from the C57Bl/6J genomic background (see Table 5 for a complete list of sequences). Flexor digitorum brevis (FDB) fibers were transfected by in vivo electroporation. Methods were described previously in (DiFranco et al., 2009) with modifications described in (Demonbreun and McNally, 2015). Briefly, the hindlimb footpad was injected with 10 μl hyaluronidase (8 units) (Cat #H4272, Sigma, St. Louis, Mo.). […] Ex vivo luciferase assay was performed on whole, electroporated FDB muscles. […] Luminescence was recorded at the Synergy HTX multi-mode 96-well plate reader (BioTek®, Winooski, Vt.). […] Results are expressed as fold change to average vehicle. All luciferase quantitation assays were conducted blinded to treatment groups. […]

mdx mice = assay: Dosing of metabolic and endocrine biomarkers in blood, serum and tissues, mdx mice, long-term (40 weeks) weekly prednisone; format: in vivo
Description: Animal handling and steroid regimens. Mice were housed in a pathogen-free dedicated vivarium in accordance with Institutional Animal Care and Use Committee (IACUC) guidelines. Euthanasia was performed through carbon dioxide inhalation followed by cervical dislocation and heart removal. All methods using living animals in this study were performed in ethical accordance with the American Veterinary Medical Association (AVMA) and under protocols fully approved by both the Institutional Animal Care and Use Committee (IACUC) at Northwestern University Feinberg School of Medicine (protocol number ISO00000761). Consistent with the ethical approvals, all efforts were made to minimize suffering. Mice were fed ad libitum with Mouse Breeder Sterilizable Diet (#7904; Harlan Teklad, Indianapolis, Ind.) and maintained on a 12-hour light/dark cycle. mdx mice from the DBA/2J background were obtained from the Jackson Laboratory (Bar Harbor, Me.; stock #013141) and interbred. Male mice were used for reported experiments. Age at start was approximately 6 months for short-term experiments, approximately 6 weeks for long-term experiments. Dysferlin-null (Dysf-null) mice from the 129T2/SvEmsJ background were previously characterized (Demonbreun et al., 2011; Demonbreun et al., 2014). Age at start was approximately 9 months for long-term experiments. For experiments with Dysf-null and wildtype mice, both females and males (approximately 1:1 ratio) were randomized in treatment groups. […] Dosing was based on weekly weight measurements (1 mg/kg body weight, (Sali et al., 2012)) in 100 μl total PBS volume per dose. Mice were injected daily via intraperitoneal injection at 7 AM. On injection days, stock solutions stored at −20° C. were diluted into sterile Eppendorf tubes containing sterile phosphate buffered saline (PBS) (#14190; Thermo Fisher, Waltham, Mass.). Puromycin (cat #A1113803, Thermo Scientific, Waltham, Mass.) was administered i.p. as 0.040 μmol/body g, and tissues were snap-frozen 30 minutes after injection. Sterile BD Micro-Fine IV Insulin Syringes (#14-829-1A; Fisher Scientific, Waltham, Mass.) were used to inject the intraperitoneal cavity of non-sedated animals. All animal analyses both during treatment and at endpoint were conducted blinded to treatment groups.
Dosing of metabolic and endocrine biomarkers. Glycogen was quantitated using the Glycogen Assay Kit (#ab65620; Abcam, Cambridge, Mass.) from approximately 25 mg frozen-pulverized whole tissue, following manufacturer's instructions and internal standards for calculating μg/mg values. For measurement of whole-tissue ATP/NAD^+ levels, approximately 25 mg frozen-pulverized tissue was extracted in 10% perchloric acid and neutralized in 0.75 M K2CO3, as previously described (Ramsey et al., 2009). NAD+ and ATP were measured by high-pressure liquid chromatography (HPLC) with Shimadzu LC-20A pump (Shimadzu Scientific Instr Inc, Addison, Ill.) and UV-VIS detector, using a Supelco LC-18-T column (15 cm×[…]; #58970-U; Millipore-Sigma, St Louis, Mo.). […] ATP and NAD^+ eluted as sharp peaks at 3 and 14 minutes, respectively, and were normalized to tissue weight of frozen liver tissue for calculating pmol/mg values. Corticosterone was measured in mouse serum and cortisol was measured in human serum using dedicated ELISA kits (#ADI-900-097, Enzo Life Science, Farmingdale, N.Y.; #K7430-100, BioVision, Milpitas, Calif.) according to manufacturer's instructions and internal standards to calculate ng/ml values. Insulin levels were quantitated in mouse and human serum with species-specific ELISA kits (#10-1247-01 (mouse-specific); #10-1113-01 (human-specific); Mercodia, Uppsala, Sweden), following manufacturer's instructions and internal standards to calculate ng/ml values. Free fatty acids were quantitated using Enzychrom Free Fatty Acid Assay kit (#EFFA-100; BioAssay Systems, Hayward, Calif.), following kit's instructions and standards to calculate μM (serum) and nmol/mg (tissue) values.

## C[C@]12C=CC(=O)C=C1CC[C@@H]1[C@@H]2C(=O)C[C@@]2(C)[C@H]1CC[C@]2(O)C(=O)CO [prednisone, Prednisone]
[1]
  Fluc reporter activity of GRE-KRE constructs: additive effect
Mdx mice
  blood glucose: no change
Mdx mice; mean ± s.e.m
  serum BCAA: 462 ± 7.32 µM
  serum corticosterone: 133 ± 8.36 ng/mL
  serum creatine kinase: 3.1 ± 0.16 U/ml
  serum free fatty acids: 547 ± 10.4 µM
  serum insulin: 1.51 ± 0.14 ng/mL
  serum β-hydroxybutyrate: 372 ± 5 µM
  tissue BCAA, diaphragm: 49.4 ± 2.14 nmol/mg
  tissue BCAA, heart: 1.74 ± 0.08 nmol/mg
  tissue BCAA, omental fat: 23.5 ± 0.43 nmol/mg
  tissue BCAA, quadriceps: 95.3 ± 3.21 nmol/mg
  tissue free fatty acids, heart: 0.211 ± 0.01 nmol/mg
  tissue free fatty acids, omental fat: 3.91 ± 0.12 nmol/mg
  tissue free fatty acids, quadriceps: 0.752 ± 0.05 nmol/mg
  tissue β-hydroxybutyrate, diaphragm: 12.9 ± 0.89 nmol/mg
  tissue β-hydroxybutyrate, heart: 20.2 ± 0.51 nmol/mg
  tissue β-hydroxybutyrate, omental fat: 23 ± 1.71 nmol/mg
  tissue β-hydroxybutyrate, quadriceps: 24.7 ± 1.58 nmol/mg
